Marks after values point to notes of the source that are not given here.
Experiments:
Format in all cases: in vivo
[1] = tested on: haploid embryos of maize lines "B" and "C"; assay: Chromosome doubling of isolated haploid immature maize embryos on pronamide medium (Example 3); details: 6 uM pronamide, 48 hours
Method: Two different diploid maize lines, “B” and “C” were pollinated with a haploid inducer line, containing homozygousGFP. Immature embryos were isolated at 11 days after pollination and embryo size ranged from 1.5-1.6 mm in length. The diploid embryos, embryos showing GFP expression, were discarded. The haploid embryos, embryos not expressing GFP, were cultured on a modified MS medium containing 6 uM pronamide with scutellum side up for 48 hours at 26 C in dark. Alter approximately 48 hours the embryos were transferred to a modified MS medium without any doubling agent. Embryos were placed with scutellum side down for 6-10 days at 26 C in the dark. The plantlets germinated torn these treated embryos were then moved into a light culture room at 28 C for another 3 weeks till healthy plantlets with good roots developed. These plantlets were then transferred to soil and grown in a regular greenhouse to maturation. The plants were self pollinated and the mature seeds will be harvested. The harvested seed will be planted as an ear-row. The plants within a row will be examined for uniformity of the plant morphology.

[2] = tested on: ears of hybrid maize plants pollinated by haploid inducer plants; assay: Immature ear treatment for haploid doubling, ear/stalk in liquid medium with Pronamide (Example 6); details: 5 uM Pronamide, 0.5% DMSO, one day
From the text: Hybrid maize plants were pollinated by haploid inducer plants. The ears with part of the stalks attached were harvested from the hybrid plants 4-6 days after pollination (embryo length less than 0.4 mm). The stalks were about 4-8 inches long on each side of where the ears were attached. The ears and the attached stalks are surface sterilized with 70% ethanol or 5% Chlorox. The lower ends of the stalks containing the ears were emerged into liquid medium containing MS medium, MS vitamins, sucrose, etc and 5 uM Pronamide, 0.5% DM SO for one day at 26 C. Then the ears still contained an the stalks were moved to a fresh medium containing MS medium, MS vitamins, sucrose etc. without doubling agent to allow the embryos and kernels to develop. The embryos within the ear can be isolated at any time after doubling. Embryo rescue can then be used to germinate immature embryos into plants. The germinated plants were grown to examine fertility.

[3] = tested on: immature embryos of hybrid maize plants pollinated with maternal-haploid-inducing line; assay: Testing different hybrids and timing of doubling agent (Example 9)
Method: A maternal-haploid-inducing maize line was used to pollinate 4 different hybrid plants. The immature embryos derived from these crosses were isolated and placed directly on embryo rescue medium containing 5 uM pronamide. Embryos were kept on the pronamide medium for approximately 36 or 48 hours before being transferred to new media without the doubling agent.
The plantlets germinated from these treated embryos were then transferred into tubes until healthy plantlets with good roofs developed. These plantlets were then transferred to soil and grown in a regular greenhouse to maturation. The plants were self-pollinated and the mature seeds were harvested.

[4] = tested on: haploid embryos of maize plant "A"; assay: Chromosome doubling of isolated haploid immature maize embryos on colchicine medium (Example 2); details: 0.05% colchicine, 24 hours
Method: A diploid maize plant, “A”, was pollinated with a haploid inducer line containing GFP. Immature embryos were isolated at 12 days after pollination and the embryo size is ranged from 1.9-2.0 mm long. The diploid embryos, GFP expressing embryos, were discarded. The haploid embryos, based on the absence of the GFP marker expression, were cultured on a medium comprising MS salts, MS vitamins, thiamine, asparagine, BAP, sucrose, gelrite, and 0.05% colchicine with scutellum side up for 24 hours at 26 C in the dark. […] This medium comprised MS salts, MS vitamins, myo-inositol, sucrose, and gelrite. The plantlets germinated from these treated embryos, were transferred to a light culture room at 26 C for another 2 -3 weeks until healthy plantlets with good roots developed. These plantlets were transferred to soil and grown in a regular greenhouse to maturation. The plants were self-pollinated and the mature seeds will be harvested. The harvested seed from each plant will be grown as an ear-row and the plants will examined for uniformity of the plant morphology within each ear-row.

[5] = Ear 1, ear/stalk harvest 6 days after pollination
[6] = Ear 2, ear/stalk harvest 6 days after pollination
[7] = Ear 3, ear/stalk harvest 5 days after pollination
[8] = Ear 4, ear/stalk harvest 4 days after pollination

Q: `C#CC(C)(C)NC(=O)c1cc(Cl)cc(Cl)c1` [pronamide, 3,5-dichloro-N-(1,1-dimethyl-2-propynyl)benzamide] was tested. Which “Fully Fertile Plant” value ([1]; Line B, 11 haploid embryos) did it give?
A: 2*

Q: What about the “Fully Fertile Plant” value ([1]; Line C, 4 haploid embryos) of the same compound?
A: 3

Q: And the “Fully Fertile Plant, percent of plantlets to greenhouse” value ([1]; Sum of lines B and C)?
A: (83.3%)

Q: What about the “Plantlet Germinated, percent of haploid embryos” value ([1]; Sum of lines B and C) of the same compound?
A: (53.3%)

Q: What about the “Fully Fertile Plant” value ([1]; Sum of lines B and C, 15 haploid embryos) of the same compound?
A: 5

Q: What about the “% of plants with fertile tassel” value [2, 5] of the same compound?
A: 67%

Q: And the “Number of plants with fertile tassel” value [2, 5]?
A: 16

Q: What about the “Number of plants with sterile tassel” value [2, 5] of the same compound?
A: 8

Q: And the “% of plants with fertile tassel” value [2, 6]?
A: 94%

Q: And the “Number of plants with fertile tassel” value [2, 6]?
A: 30

Q: What about the “Number of plants with sterile tassel” value [2, 6] of the same compound?
A: 2

Q: And the “% of plants with fertile tassel” value [2, 7]?
A: 70%

Q: What about the “Number of plants with fertile tassel” value [2, 7] of the same compound?
A: 14

Q: And the “Number of plants with sterile tassel” value [2, 7]?
A: 6

Q: What about the “% of plants with fertile tassel” value [2, 8] of the same compound?
A: 95%

Q: What about the “Number of plants with fertile tassel” value [2, 8] of the same compound?
A: 19

Q: What about the “Number of plants with sterile tassel” value [2, 8] of the same compound?
A: 1

Q: What about the “% of plants with fertile tassel” value ([2]; Sum of 4 ears) of the same compound?
A: 82%

Q: And the “Number of plants with fertile tassel” value ([2]; Sum of 4 ears)?
A: 79

Q: And the “Number of plants with sterile tassel” value ([2]; Sum of 4 ears)?
A: 17

Q: And the “# of Double Haploid Plants with Ears” value ([3]; 5 uM Pronamide 36 hours, Hybrid 1, 11 days after pollination, 100 embryos excised, embryo size 2.5 mm)?
A: 1

Q: What about the “# of Double Haploid Plants with Ears” value ([3]; 5 uM Pronamide 36 hours, Hybrid 1, 12 days after pollination, 300 embryos excised, embryo size 2.5 mm) of the same compound?
A: 1

Q: What about the “# of Double Haploid Plants with Ears” value ([3]; 5 uM Pronamide 36 hours, Hybrid 2, 11 days after pollination, 176 embryos excised, embryo size 2.5-3 mm) of the same compound?
A: 4

Q: What about the “# of Double Haploid Plants with Ears” value ([3]; 5 uM Pronamide 36 hours, Hybrid 3, 12 days after pollination, 279 embryos excised, embryo size 2.5-3 mm) of the same compound?
A: 13

Q: And the “# of Double Haploid Plants with Ears” value ([3]; 5 uM Pronamide 36 hours, Hybrid 4, 12 days after pollination, 322 embryos excised, embryo size 2.5 mm)?
A: 2

Q: What about the “# of Double Haploid Plants with Ears” value ([3]; 5 uM Pronamide 48 hours, Hybrid 3, 10 days after pollination, 236 embryos excised, embryo size 2 mm) of the same compound?
A: 6

Q: And the “# of Double Haploid Plants with Ears” value ([3]; 5 uM Pronamide 48 hours, Hybrid 4, 10 days after pollination, 144 embryos excised, embryo size 2 mm)?
A: 3

Q: What about the “Homozygosity of progeny of double haploid plants” value ([3]; 5 uM pronamide 36 or 48 hours, sample of plants, 120 molecular markers) of the same compound?
A: confirmed for homozygosity

Q: How did the “Fully Fertile Plants” value ([4]; Ear 1, 3 haploid embryos) turn out when `COc1cc2c(c(OC)c1OC)-c1ccc(OC)c(=O)cc1[C@@H](NC(C)=O)CC2` [colchicine, (S)-N-(5,6,7,9-tetrahydro-1,2,3,10-tetramethoxy-9-oxobenzo (a)heptalen-7-yl) acetamide] was run?
A: 2

Q: And the “Fully Fertile Plants” value ([4]; Ear 2, 7 haploid embryos)?
A: 4*

Q: And the “Fully Fertile Plants” value ([4]; Ear 3, 9 haploid embryos)?
A: 8

Q: What about the “Fully Fertile Plants, percent of plantlets to greenhouse” value ([4]; Sum of 3 ears) of the same compound?
A: (93.3%)

Q: And the “Plantlets Germinated, percent of haploid embryos” value ([4]; Sum of 3 ears)?
A: (84.2%)

Q: What about the “Fully Fertile Plants” value ([4]; Sum of 3 ears, 19 haploid embryos) of the same compound?
A: 14

From patent publication US20130205438A1, “DOUBLING OF CHROMOSOMES IN HAPLOID EMBRYOS” (PIONEER HI BRED INTERNATIONAL INC, priority 2005, published 2013)
